The source of these data is patent US10023836B2, “Medium for yeasts” (YAMAGUCHI UNIVERSITY, priority 2012, dated 2018).

Molecules are shown by their SMILES. Like-named read-outs stand apart in the source and are kept apart here.

The subject of test [1] is RAK2683 yeast strain. Briefly: Investigation of nitrogen source used singly in MM culture medium instead of ammonium sulfate (Table 4). Format: cell-based, Saccharomyces cerevisiae. To be noted: Table 4 conditions.
In test [2] the test system is RAK3599 strain. Kind of test: Investigation with AID and aY-AID culture medium (FIGS. 29 to 39). The settings on record: for effect on proliferation when added at high concentrations: up to 1% or up to 0.2500%. In kind it is cell-based, Saccharomyces cerevisiae. The method, then: As shown in the following, an investigation was conducted into concentrations of each amino acid and a substitution potential of pantothenic acid for the amino acid in the AID culture medium. A suitable YPD culture medium was used as a control.
Next, the amino acids asparagine, isoleucine, phenylalanine, and valine were each adjusted to a culture medium additive concentration of […], 0.0312%, 0.0625%, 0.1250%, and 0.2500%, and OD600 was measured after 24 hours.
Isoleucine concentration in the aY-AID culture medium was adjusted to 0, 0.01 mg/mL, 0.1 mg/mL, 0.5 mg/mL, and 1 mg/mL, respectively, and proliferation of the RAK3599 strain was investigated.
Phenylalanine concentration in the aY-AID culture medium was adjusted to 0, 0.01, 0.1, 0.5, and 1 mg/mL, respectively, and proliferation of the RAK3599 strain was investigated.
Valine concentration in the aY-AID culture medium was adjusted to 0, 0.01, 0.1, 0.5, and 1 mg/mL, respectively, and proliferation of the RAK3599 strain was investigated.
Serine concentration in the AID culture medium was adjusted to 0, 0.01 mg/mL, 0.1 mg/mL, 0.5 mg/mL, and 1 mg/mL, respectively, and proliferation of the RAK3599 strain was investigated.
Threonine concentration in the AID culture medium was adjusted to 0, 0.01, 0.1, 0.5, and 1 mg/mL, respectively, and proliferation of the RAK3599 strain was investigated.
Asparagine concentration in the AID culture medium was adjusted to 0, 0.01, 0.1, 0.5, and 1 mg/mL, respectively, and proliferation of the RAK3599 strain was investigated.
An investigation was conducted into vitamins contained in the AID culture medium. […]

Test [3] deals with Saccharomyces cerevisiae RAK3599 strain. Kind of test: SynAA culture medium: elimination of single components and inorganic ion concentration. Format: cell-based. As to the method:
(§1) In a case where no special provisions are made, a procedure for a cultivation experiment using the culture medium to be investigated for proliferation was such that a yeast undergoing investigation was pre-cultured in a YPD liquid culture medium at 28° C. for 24 hours, after which the yeast was adjusted such that OD600=20. […] In addition, OD600 was measured every 15 minutes by a spectrophotometer (Cell density meter co8000, WPA). Hereafter, data is represented by graphs for a case using the automatic spectrophotometer; however, these graphs are primarily used to compare the slope of logarithmic growth phase proliferation curves for each culture medium, and because OD600 is measured without dilution, values where OD600=3 to 3.5 or more may be incorrect.
Culture mediums were prepared in which one component each of the components configuring the inorganic ion mix was eliminated from the SynAA culture medium, and OD600 was measured. […] Thereafter, an investigation specifically of inorganic ion concentration was conducted. […] An investigation was conducted using RAK3599 strain (hereafter, simply referred to as “RAK3599 strain”), which is a strain of Saccharomyces cerevisiae not having a particular nutritional requirement. Where no subsequent special provisions were made, proliferation was investigated by performing roller tube culture for an appropriate amount of time at 28° C. and measuring OD600.
MgSO4 concentration in the SynAA culture mediums was adjusted to 0%, 0.0001%, 0.001%, 0.01%, 0.1%, and 1%, respectively, and proliferation of the RAK3599 strain was investigated. […] Next, MgCl2 concentration in the SynAA culture mediums was adjusted to 0.001%, 0.01%, 0.1%, and 1%, respectively, and proliferation of the RAK3599 strain was investigated.
A culture medium was prepared in which one component each of the components configuring the vitamin mix was eliminated from the SynAA culture medium, with the SynAA culture medium as the control, and proliferation of the RAK3599 strain was investigated.

Test [4] relates to RAK3599 strain. Kind of test: Vitamin and FeCl3 concentration in AKD′ culture medium (FIGS. 22 to 28). In kind it is cell-based, Saccharomyces cerevisiae. The method, then:
as §1
Pyridoxine concentration in the AKD′ culture medium was adjusted to 0, 0.004, 0.04, 0.4, 4, and 40 μg/mL, respectively, and proliferation of the RAK3599 strain was investigated.
Pantothenic acid concentration in the AKD′ culture medium was adjusted to 0, 0.004, 0.04, 0.4, 4, and 40 μg/mL, respectively, and proliferation of the RAK3599 strain was investigated.
Thiamine concentration in the AKD′ culture medium was adjusted to 0, 0.004, 0.04, 0.4, 4, and 40 μg/mL, respectively, and proliferation of the RAK3599 strain was investigated.
Nicotinic acid concentration in the AKD′ culture medium was adjusted to 0, 0.004, 0.04, 0.4, 4, and 40 μg/mL, respectively, and proliferation of the RAK3599 strain was investigated.
Myo-inositol concentration in the AKD′ culture medium was adjusted to 0, 0.02 μg/mL, 0.2 μg/mL, 2 μg/mL, 20 μg/mL, and 200 μg/mL, respectively, and proliferation of the RAK 3599 strain was investigated.
FeCl3 concentration in the AKD′ culture medium was adjusted to 0, 0.002, 0.02, 0.2, 2, and 20 μg/mL, respectively, and proliferation of the RAK3599 strain was investigated.

In test [5] the test system is Saccharomyces cerevisiae uracil-requiring BY4700 (ura3Δ) strain. Kind of test: Uracil concentration in AKD culture medium (FIG. 19). In kind it is cell-based. The method, then:
A concentration of uracil contained in the amino acid mix of the AKD culture mediums for convenience was adjusted to 0.001%, 0.005%, 0.05%, 0.1%, and 0.5%, respectively, and proliferation of a Saccharomyces cerevisiae uracil-requiring BY4700 (ura3Δ) strain was investigated. OD600 for 1/100 solutions after 42 hours was 0.10, 0.21, 0.21, 0.22 and 0.20, respectively. Proliferation was confirmed to be low at 0.001%, to increase at 0.005%. and to markedly increase at between 0.05% and 0.1%. Proliferation was confirmed to be somewhat inhibited at 0.5%. Given the above-noted results, a preferred uracil concentration was understood to be around 0.01%.

The test system of test [6] is Saccharomyces cerevisiae adenine-requiring BY4725 (ade2Δ) strain. Kind of test: Adenine concentration in AKD culture medium (FIG. 20). In kind it is cell-based. The method, then: A concentration of adenine contained in the amino acid mix of the AKD culture mediums for convenience was adjusted to 0%, 0.005%, 0.01%, 0.05%, 0.1%, and 0.5%, respectively, and proliferation of a Saccharomyces cerevisiae adenine-requiring BY4725 (ade2Δ) strain was investigated. OD600 for 1/20 solutions after 42 hours was 4, 15, 18, 18, 13 and 16, respectively. […] Given the above-noted results, a preferred adenine concentration was understood to be around 0.01%.

Test [7] concerns Saccharomyces cerevisiae tryptophan-requiring BY4710 (trp1Δ) strain. Briefly: Tryptophan concentration in AKD culture medium (FIG. 18). Format: cell-based. The method, then:
Tryptophan concentration in the AKD culture mediums was adjusted to 0.001%, 0.01%, 0.1%, and 1%, respectively, and proliferation of a Saccharomyces cerevisiae tryptophan-requiring BY4710 (trp1Δ) strain was investigated. OD600 for 1/100 solutions after 48 hours was 0.08, 0.15, 0.13, and 0.12, respectively. […] Given the above-noted results, a preferred tryptophan concentration was understood to be around 0.01%.

For `CC(=O)O.N` [Ammonium acetate], the “proliferation when added singly as nitrogen source” value (“proliferation when added singly” for short) in test [1] is “did not, as a whole, exhibit favorable proliferation”.

Take `C[C@@H](O)[C@H](N)C(=O)O` [Threonine, L-Threonine]: the “proliferation when added singly” value in test [1] is given as “almost no proliferation”. In addition, in test [2] (AID culture medium), the “content at which proliferation particularly increased” value was “around 0.5 mg/mL” and the “effect on proliferation when added at high concentrations” value is “proliferation was confirmed to be inhibited”. In addition, the “preferred concentration / content” value in test [2] (AID or aY-AID culture medium) is reported as “around 0.5 g/L”.

On to `CC(C)(CO)[C@@H](O)C(=O)NCCC(=O)O` [pantothenic acid], for which the “essentiality for increasing proliferation” value in test [3] (one component of the vitamin mix eliminated from SynAA culture medium) was “essential components”. In test [4] (AKD′ culture medium), the “concentration at which proliferation was inhibited” value turned out to be 40 µg/mL and the preferred concentration result is on record as “around 4000 μg/L”. In test [4] (AKD′ culture medium without the substance), the “proliferation at a content of 0” value is recorded as “no proliferation whatsoever”.

Take `N[C@@H](CCC(=O)[O-])C(=O)[O-].O.[Na+].[Na+]` [Glutamic acid, L-Glutamic acid sodium salt hydrate]: in test [1], the “proliferation when added singly” value was “favorable proliferation”.

In the case of `Cl.NCCCC[C@H](N)C(=O)O` [Lysine, L-Lysine hydrochloride], the “proliferation when added singly” value in test [1] is “almost no proliferation”.

For the molecule `NCC(=O)O` [Glycine], in test [1], the “proliferation when added singly” value is given as “almost no proliferation”. Besides, the “effect on proliferation when added at high concentrations” value in test [2] (AID culture medium) is “proliferation was confirmed to be inhibited”.

Take `N.N.O=S(=O)(O)O` [Ammonium sulfate]: the “proliferation when the component is not added” value in test [3] (one component of the inorganic ion mix eliminated from SynAA culture medium) is given as “higher proliferation”. Besides, the “proliferation when added singly” value in test [1] is recorded as “proliferation was confirmed to be extremely poor”.

As to `O=c1cc[nH]c(=O)[nH]1` [uracil], in test [5], the “concentration at which proliferation was somewhat inhibited” value worked out at 0.5%. The preferred concentration entry in test [5] is recorded as “around 0.01%”. Besides, the “OD600 for 1/100 solutions after 42 hours” value is 0.10 in test [5] (uracil 0.001%); 0.21 in test [5] (uracil 0.005%); 0.21 in test [5] (uracil 0.05%); 0.22 in test [5] (uracil 0.1%); 0.20 in test [5] (uracil 0.5%).

With `O=C(O)[C@@H]1CCCN1` [Proline, L-Proline], in test [1], the “proliferation when added singly” value is “favorable proliferation”.

On to `Nc1ncnc2nc[nH]c12` [adenine], for which the “concentration at which proliferation was slightly inhibited” value in test [6] was at least 0.1%. Besides, in test [6], the preferred concentration result was “around 0.01%”. Also, the “OD600 for 1/20 solutions after 42 hours” value was determined as 4 in test [6] (adenine 0%); 15 in test [6] (adenine 0.005%); 18 in test [6] (adenine 0.01%); 18 in test [6] (adenine 0.05%); 13 in test [6] (adenine 0.1%); 16 in test [6] (adenine 0.5%).

Regarding `Cl.N` [Ammonium chloride], the “proliferation when added singly” value in test [1] is “did not, as a whole, exhibit favorable proliferation”.

For `O=P([O-])(O)O.[K+]` [KH2PO4, potassium dihydrogen phosphate], in test [3], the “proliferation when the component is not added” value was “extremely low proliferation”.

As to `O=P([O-])(O)O.[Na+]` [NaH2PO4], in test [3] (0.1% added to SynAA culture medium instead of KH2PO4, after 20 hours), the proliferation entry was “proliferation had not occurred”.

On to `N[C@@H](Cc1c[nH]c2ccccc12)C(=O)O` [Tryptophan, L-Tryptophan], for which the “concentration at which proliferation was somewhat inhibited” value in test [7] worked out at 0.1%. Also, the preferred concentration result in test [7] is reported as “around 0.01%”. Moreover, the “OD600 for 1/100 solutions after 48 hours” value in test [7] (tryptophan 0.001%) is listed as 0.08; in test [7] (tryptophan 0.01%), 0.15; in test [7] (tryptophan 0.1%) it was 0.13; in test [7] (tryptophan 1%), 0.12.
